The target of assay [1] is T1, E3 ubiquitin-protein ligase Mdm2 (Homo sapiens, UniProt Q00987). The experiment in a line: Binding affinity to MDM2 (25 to 109 amino acids) (unknown origin) at 100 uM after 30 mins by surface plasmon resosnance analysis. (In general: Surface plasmon resonance follows binding to a sensor surface in real time, without labels.)
Target sequence in this assay (Q00987 whole entry, looked up, the tested form may be a part): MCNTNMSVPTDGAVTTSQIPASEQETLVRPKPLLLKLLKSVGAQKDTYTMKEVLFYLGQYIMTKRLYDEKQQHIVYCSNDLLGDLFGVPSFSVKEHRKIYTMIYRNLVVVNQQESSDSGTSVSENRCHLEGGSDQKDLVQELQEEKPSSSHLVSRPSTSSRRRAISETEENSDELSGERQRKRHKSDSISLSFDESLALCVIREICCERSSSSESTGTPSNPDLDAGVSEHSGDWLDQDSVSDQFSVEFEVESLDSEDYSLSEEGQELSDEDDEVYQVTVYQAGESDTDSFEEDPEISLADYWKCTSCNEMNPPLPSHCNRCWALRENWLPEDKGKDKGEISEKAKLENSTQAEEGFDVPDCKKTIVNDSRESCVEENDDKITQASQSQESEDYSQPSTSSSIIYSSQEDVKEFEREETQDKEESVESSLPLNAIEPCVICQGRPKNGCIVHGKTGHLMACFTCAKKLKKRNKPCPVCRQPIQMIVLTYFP
Assay [2] addresses T1, E3 ubiquitin-protein ligase Mdm2. The experiment in a line: Binding affinity to MDM2 (25 to 109 amino acids) (unknown origin) after 30 mins by surface plasmon resosnance analysis.
Target sequence in this assay (Q00987 whole entry, the tested form may be a part): as the sequence (Q00987 whole entry, looked up, the tested form may be a part) above

Activity calls are given as the source filed them. The rule behind the calls is not given here.

Regarding `CC(C)C[C@@H]1NC(=O)[C@@H]2CSSC[C@@H](C(=O)O)NC(=O)[C@H](CC(N)=O)NC(=O)[C@H](CSSC[C@H](NC(=O)[C@H](CC(C)C)NC(=O)[C@H](CCC(N)=O)NC(=O)[C@@H](N)Cc3cnc[nH]3)C(=O)N[C@@H](CCCNC(=N)N)C(=O)N[C@@H](Cc3c[nH]c4ccccc34)C(=O)N[C@@H](Cc3ccc(O)cc3)C(=O)N2)NC(=O)[C@H](CCCCN)NC(=O)[C@H](C)NC(=O)[C@@H]2CCCN2C(=O)[C@H](CCC(=O)O)NC(=O)[C@H]([C@@H](C)O)NC(=O)[C@H](Cc2ccccc2)NC1=O`, the result in assay [1] was inactive.
One may read the Kd as a measure of binding affinity in units of concentration. Lower therefore signals a tighter complex. As to `CC(C)C[C@@H](NC(=O)[C@@H](CCC(N)=O)NC(=O)[C@H](N)Cc1cnc[nH]1)C(=O)N[C@@H]1CSSC[C@H]2NC(=O)[C@@H](CCCCN)NC(=O)[C@@H](C)NC(=O)[C@H]3CCCN3C(=O)[C@@H](CCC(=O)O)NC(=O)[C@@H]([C@H](C)O)NC(=O)[C@@H](Cc3ccccc3)NC(=O)[C@@H](CC(C)C)NC(=O)[C@@H](CSSC[C@H](C(=O)O)NC(=O)[C@@H](CC(N)=O)NC2=O)NC(=O)[C@@H](Cc2ccc(O)cc2)NC(=O)[C@@H](Cc2c[nH]c3ccccc23)NC(=O)[C@@H](CCCNC(=N)N)NC1=O`, the Kd in assay [2] was found to be 18.1 µM. In other words, the double-digit micromolar range.

The values are drawn from ChEMBL document CHEMBL2396557, “Functional consequences of retro-inverso isomerization of a miniature protein inhibitor of the p53-MDM2 interaction” (Bioorg Med Chem, 2013).
